The supplement of paper PMC3493320
pIC50: −log10 of the molar value.

System: NCI-H295R
Assay: IC50 (antiproliferative, ATP content)
Details: 48 h
Method in brief: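 Adrenocortical carcinoma cells were plated at 1500 per well in 1536-well plates in serum-free DMEM with ITS supplement, left overnight, then given library compounds by pin transfer at 8 final concentrations spanning 0.6 nM to 46 µM and held 48 h at 37 °C, 5% CO2. ATP was measured as CellTiter-Glo luminescence after 20 min at room temperature and scaled between vehicle and positive-control wells. A four-parameter logistic model was fitted to each series. The IC50 was taken from these fits, and compounds without a concentration response were recorded as above the top dose.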

Row | SMILES | pIC50
1 | CCOC(=O)/C=C(C)/C=C/C[C@@H](C)CCCC(C)C | < 4.34
2 | C[N+](C)(C)CCOC(=O)C(O)(c1ccccc1)c1ccccc1.[I-] | < 4.34
3 | CC1=C(C=C/C(C)=C/C=C/C(C)=C/CO)C(C)(C)CCC1 | < 4.34
4 | OCCOCCOCCO | < 4.34
5 | CN1CCC(O)(c2ccc(F)cc2)C(C(=O)c2ccc(F)cc2)C1 (stereo unspecified) | < 4.34
6 | CC(=O)NCc1c(I)c(NC(C)=O)c(I)c(C(=O)O)c1I | < 4.34
7 | CC(=O)N[C@@H](CS)C(=O)O | < 4.34
8 | CCCCCCCCCCCCCCCCCCCCCC(=O)Nc1ccn([C@@H]2O[C@H](CO)[C@@H](O)[C@@H]2O)c(=O)n1 | < 4.34
9 | CC(C)NC(C)C | < 4.34
10 | Nc1nc(=O)[nH]cc1F | < 4.34
11 | O=c1cc[nH]c(=O)[nH]1 | < 4.34
12 | CN1C(=S)CN=C(c2ccccc2)c2cc(Cl)ccc21 | < 4.34
13 | C=CCCCCCCCCC(=O)O | < 4.34
14 | CCn1cc(C(=O)O)c(=O)c2cc(F)c(N3CCNC(C)C3)c(F)c21.Cl (stereo unspecified) | < 4.34
15 | C=CCN1C[C@H](C)N([C@H](c2ccc(C(=O)N(CC)CC)cc2)c2cccc(OC)c2)C[C@H]1C | < 4.34
16 | CNC(C)(C)Cc1ccccc1.CNC(C)(C)Cc1ccccc1.O=S(=O)(O)O | < 4.34
17 | Clc1ccc(C2(Cn3cncn3)OCCO2)c(Cl)c1 | < 4.34
18 | O[C@@H]1CO[C@H]2[C@@H]1OC[C@@H]2O | < 4.34
19 | CN[C@@H](C)[C@@H]1CC[C@@H](N)[C@@H](O[C@H]2[C@H](O)[C@@H](O[C@H]3OC[C@](C)(O)[C@H](NC)[C@H]3O)[C@H](N)C[C@@H]2N)O1.O=S(=O)(O)O | < 4.34
20 | ClCc1ccccc1.O=C1C[C@@H]2OCC=C3CN4CC[C@]56c7ccccc7N1[C@H]5[C@H]2[C@H]3C[C@H]46 | < 4.34
21 | CC1CCc2c(N3CCC(O)CC3)c(F)cc3c(=O)c(C(=O)O)cn1c23 (stereo unspecified) | < 4.34
22 | CC(C)=CCC/C(C)=C/C=C/C(C)=C/C=C/C(C)=C/C=C/C=C(C)/C=C/C=C(C)/C=C/C=C(\C)CCC=C(C)C | < 4.34
23 | O=C(O)[C@@H]1C[C@H](CP(=O)(O)O)CCN1 | < 4.34
24 | CCNC1(c2cccs2)CCCCC1=O.Cl (stereo unspecified) | < 4.34
25 | CC(C)CCC[C@@H](C)[C@H]1CC[C@H]2[C@@H]3CC=C4C[C@@H](O)CC[C@]4(C)[C@H]3CC[C@]12C | < 4.34
26 | NCCS(=O)(=O)O | < 4.34
27 | CCCCCCCCCCCC(=O)OC[C@@H](O)[C@H]1OC[C@H](O)[C@H]1O | < 4.34

Row | SMILES | pIC50
28 | CN1[C@@H]2CC[C@H]1C[C@@H](OC(=O)c1cc(Cl)cc(Cl)c1)C2 | < 4.34
29 | NCCC[C@H](N)CC(=O)N[C@H]1CNC(=O)[C@H]([C@H]2C[C@H](O)N=C(N)N2)NC(=O)/C(=C/NC(N)=O)NC(=O)[C@H](CO)NC(=O)[C@H](CO)NC1=O.O=S(=O)(O)O | < 4.34
30 | NCC(O)c1ccc(O)cc1 (stereo unspecified) | < 4.34
31 | O=[N+]([O-])O[C@H]1CO[C@H]2[C@@H]1OC[C@H]2O[N+](=O)[O-] | < 4.34
32 | C=1(C(\C(C(=O)OC)=C(/NC=1C)C)c3c2c(non2)ccc3)C(OC(C)C)=O (stereo unspecified) | < 4.34
33 | CON=C(C(=O)N[C@@H]1C(=O)N2C(C(=O)[O-])=C(CSc3nc(C)c(CC(=O)[O-])s3)CS[C@H]12)c1csc(N)n1.[Na+].[Na+] | < 4.34
34 | CCC(C)C(N)C(=O)O (stereo unspecified) | < 4.34
35 | CCCCCCCCCCCCCCCC(=O)OC[C@@H](O)[C@H]1OC[C@H](O)[C@H]1O | < 4.34
36 | C[N+]12CCC(CC1)C(OC(=O)C(O)(c1ccccc1)c1ccccc1)C2.[Br-] (stereo unspecified) | < 4.34
37 | O=[N+]([O-])c1ccc([As](=O)(O)O)cc1 | < 4.34
38 | CN1C(=O)OC(C)(C)C1=O | < 4.34
39 | CC(C)c1c(CN(C)C(C)Cc2ccccc2)n(C)n(-c2ccccc2)c1=O (stereo unspecified) | < 4.34
40 | O=[C@](OCC2=COC(CC3=CC=CC=C3)=C2)[C@H]1C(C)(C)[C@@H]1\C=C(C)/C | < 4.34
41 | CN1C(C)(C)CCCC1(C)C.O=C(O)[C@@H](O)[C@H](O)C(=O)O | < 4.34
42 | CCCCC(CC)CCC(CC(C)C)OS(=O)(=O)[O-].[Na+] (stereo unspecified) | < 4.34
43 | CC(=O)OCC(=O)[C@@]53/N=C(/C)O[C@@H]5C[C@H]2[C@@H]4CC\C1=C\C(=O)\C=C/[C@]1(C)[C@H]4[C@@H](O)C[C@@]23C | < 4.34
44 | CC(=O)CCC(=O)[O-].CC(=O)CCC(=O)[O-].O.O.[Ca+2] | < 4.34
45 | CCN(CC)C(C)C(=O)c1ccccc1.Cl (stereo unspecified) | < 4.34
46 | Clc1cccc(SC2CCNCC2)n1 | < 4.34
47 | NC[C@H](O)c1ccc(O)c(O)c1.O=C(O)C(O)C(O)C(=O)O.O=C(O)C(O)C(O)C(=O)O | < 4.34
48 | COc1nc(N)nc2c1ncn2[C@@H]1O[C@H](CO)[C@@H](O)[C@@H]1O | < 4.34
49 | O=C1CN=C(c2ccccc2)c2cc([N+](=O)[O-])ccc2N1 | < 4.34
50 | CC(=O)N[C@@H](CC(=O)N[C@@H](CCC(=O)O)C(=O)O)C(=O)O | < 4.34
51 | N\1(C(NC(/C(=C/1)C)=O)=O)[C@@H]2O[C@H](CO)[C@H](C2)O | < 4.34
52 | O=S(=O)([O-])O.[Na+] | < 4.34
53 | Oc1cc(Cl)c(Cl)cc1Cl | < 4.34
54 | CN(C)[C@@H]1C(O)=C(C(N)=O)C(=O)[C@@]2(O)C(O)=C3C(=O)c4c(O)ccc(Cl)c4[C@@](C)(O)[C@H]3C[C@@H]12.Cl | < 4.34

Now from value to compound:

Row | pIC50 | SMILES
55 | < 4.34 | Cc1cccn2c(=O)c(-c3nnn[n-]3)cnc12.[K+]
56 | < 4.34 | COc1cc(NS(=O)(=O)c2ccc(N)cc2)nc(OC)n1
57 | < 4.34 | CC=CC=NNC(=O)c1ccncc1
58 | < 4.34 | CC1(c2ccccc2)OC(C(=O)O)=CC1=O (stereo unspecified)
59 | < 4.34 | CC1CCC(C(C)C)C(OC(=O)c2ccccc2O)C1 (stereo unspecified)
60 | < 4.34 | Cc1cc(C)cc(OCC2CNC(=O)O2)c1 (stereo unspecified)
61 | < 4.34 | O=C(Cn1ccnc1[N+](=O)[O-])NCc1ccccc1
62 | < 4.34 | OCCOCCN1CCN(C2=Nc3ccccc3Sc3ccccc32)CC1
63 | < 4.34 | CCCc1ncc(C[n+]2ccccc2C)c(N)n1.Cl.[Cl-]
64 | < 4.34 | N=C(N)NS(=O)(=O)c1ccc(N)cc1
65 | < 4.34 | O=C(OCc1ccccc1)c1ccccc1
66 | < 4.34 | C[n+]1ccccc1C=NO.[Cl-]
67 | < 4.34 | Cc1cccc(C)c1NC(=O)C1CCCCN1C.Cl (stereo unspecified)
68 | < 4.34 | COc1ccc2nc(NC(=O)Nc3ccccc3)sc2c1
69 | < 4.34 | O=C(O)COC(=O)Cc1ccccc1Nc1c(Cl)cccc1Cl
70 | < 4.34 | CC(C)CN(C[C@@H](O)[C@H](Cc1ccccc1)NC(=O)O[C@H]1CO[C@H]2OCC[C@H]21)S(=O)(=O)c1ccc(N)cc1
71 | < 4.34 | Cc1cccc(Nc2cc(Cl)nc(SCC(=O)O)n2)c1C
72 | < 4.34 | CC1CCCCN1CCCOC(=O)c1ccccc1.Cl (stereo unspecified)
73 | < 4.34 | O=C1CCC(c2ccc(-n3ccnc3)cc2)=NN1
74 | < 4.34 | CCCC(=O)O[C@]1(C(=O)CCl)[C@@H](C)C[C@H]2[C@@H]3CCC4=CC(=O)C=C[C@]4(C)[C@@]3(F)C(=O)C[C@@]21C
75 | < 4.34 | CCCCCc1ccc(C)cc1O
76 | < 4.34 | Cc1c(OCC(F)(F)F)ccnc1CS(=O)c1nc2ccccc2[nH]1 (stereo unspecified)
77 | < 4.34 | Cl.Oc1cn2c(n1)Nc1ccc(Cl)c(Cl)c1C2
78 | < 4.34 | CCOc1ccc(NC(=O)CC(C)O)cc1 (stereo unspecified)
79 | < 4.34 | CCCCNC(=O)NS(=O)(=O)c1ccc(C)cc1
80 | < 4.34 | CCCc1ccc(C(=O)O)cc1

Row | pIC50 | SMILES
81 | < 4.34 | CCN(CC)CCNC(C(=O)OCCC(C)C)c1ccccc1 (stereo unspecified)
82 | < 4.34 | O.O=C(/C=C/C(O)c1ccc(Cl)cc1)[O][Na] (stereo unspecified)
83 | < 4.34 | O=C1Cc2cc(CCN3CCN(c4nsc5ccccc45)CC3)c(Cl)cc2N1
84 | < 4.34 | CC=Cc1ccc(O)c(OC)c1
85 | < 4.34 | C[C@]12CCC(=O)C=C1C=C[C@@H]1[C@@H]2CC[C@@]2(C)[C@H]1CC[C@@]21CCC(=O)O1
86 | < 4.34 | CNCCCN1c2ccccc2CCc2ccccc21.Cl
87 | < 4.34 | CCOC(=O)C1=C(C)NC(C)=C(C(=O)OC)C1c1cccc(Cl)c1Cl (stereo unspecified)
88 | < 4.34 | COc1ccc(C=NNC(=O)c2ccncc2)c(C(=O)O)c1OC
89 | < 4.34 | O=C(N[C@H](CO)[C@H](O)c1ccc([N+](=O)[O-])cc1)C(Cl)Cl
90 | < 4.34 | CCN1CCc2nc(N)oc2CC1.Cl.Cl
91 | < 4.34 | O=C(C1CCCCC1)N1CC(=O)N2CCc3ccccc3C2C1 (stereo unspecified)
92 | < 4.34 | CC(=O)Oc1ccc(C)cc1
93 | < 4.34 | CN(C)CCCN1c2ccccc2Sc2ccc(C(F)(F)F)cc21.Cl
94 | < 4.34 | C(=Cc1ccncc1)c1ccccc1
95 | < 4.34 | CC(=O)Oc1cc(C(F)(F)F)ccc1C(=O)O
96 | < 4.34 | O=C2N1[C@]([C@@]([H])2NC(C(CC)OC3=CC=CC=C3)=O)([H])SC(C)(C)[C@@H]1[C@@](O)=O (stereo partly specified)
97 | < 4.34 | Cc1ccc(S(=O)(=O)[O-])cc1C.[Na+]
98 | < 4.34 | C=CCN1CCc2nc(N)sc2CC1
99 | < 4.34 | CN(C)CCOC(=O)C(c1ccccc1)C1(O)CCCC1.Cl (stereo unspecified)
100 | < 4.34 | Cl.O=C1NCC2(CCN(CCc3ccccc3)CC2)O1
101 | < 4.34 | CC(=O)CCCCn1c(=O)c2c(ncn2C)n(C)c1=O
102 | < 4.34 | Cc1cccc(Nc2ncccc2C(=O)O)c1C
103 | < 4.34 | CC(CCc1ccccc1)NCC(O)c1ccc(O)c(C(N)=O)c1.Cl (stereo unspecified)
104 | < 4.34 | Cn1nnnc1SCC1=C(C(=O)[O-])N2C(=O)[C@@H](NC(=O)[C@H](O)c3ccccc3)[C@H]2SC1.[Na+]
105 | < 4.34 | Cc1cccc(N(C)C(=S)Oc2ccc3ccccc3c2)c1
106 | < 4.34 | COc1ccccc1OCC(O)COC(N)=O (stereo unspecified)
